Legend:
Conditions in all cases: 72 h
U2OS [1] = test: cell viability relative to DMSO; higher = less toxic
HepG2 [2] = test: as above
Calu-3 [3] = test: as above
Vero E6 [4] = test: as above
Caco-2 [5] = test: as above
U2OS [6] = test: relative viability EC50 (midpoint between 100% and the lowest measured viability); higher = less toxic
HepG2 [7] = test: as above
Calu-3 [8] = test: as above
Vero E6 [9] = test: as above
Caco-2 [10] = test: as above
U2OS [11] = test: drug sensitivity score (DSS) for viability; higher = more toxic; extreme values may be limits of the assay
HepG2 [12] = test: as above
Calu-3 [13] = test: as above
Vero E6 [14] = test: as above
Caco-2 [15] = test: as above

| SMILES | cell viability (U2OS [1]; 1 nM) [%] | cell viability (U2OS [1]; 10 nM) [%] | cell viability (U2OS [1]; 100 nM) [%] | cell viability (U2OS [1]; 1000 nM) [%] | cell viability (U2OS [1]; 10000 nM) [%] | cell viability (HepG2 [2]; 1 nM) [%] | cell viability (HepG2 [2]; 10 nM) [%] | cell viability (HepG2 [2]; 100 nM) [%] | cell viability (HepG2 [2]; 1000 nM) [%] | cell viability (HepG2 [2]; 10000 nM) [%] | cell viability (Calu-3 [3]; 1 nM) [%] | cell viability (Calu-3 [3]; 10 nM) [%] | cell viability (Calu-3 [3]; 100 nM) [%] | cell viability (Calu-3 [3]; 1000 nM) [%] | cell viability (Calu-3 [3]; 10000 nM) [%] | cell viability (Vero E6 [4]; 1 nM) [%] | cell viability (Vero E6 [4]; 10 nM) [%] | cell viability (Vero E6 [4]; 100 nM) [%] | cell viability (Vero E6 [4]; 1000 nM) [%] | cell viability (Vero E6 [4]; 10000 nM) [%] | cell viability (Caco-2 [5]; 1 nM) [%] | cell viability (Caco-2 [5]; 10 nM) [%] | cell viability (Caco-2 [5]; 100 nM) [%] | cell viability (Caco-2 [5]; 1000 nM) [%] | cell viability (Caco-2 [5]; 10000 nM) [%] | relative viability EC50 (U2OS [6]) [µM] | relative viability EC50 (HepG2 [7]) [µM] | relative viability EC50 (Calu-3 [8]) [µM] | relative viability EC50 (Vero E6 [9]) [µM] | relative viability EC50 (Caco-2 [10]) [µM] | drug sensitivity score (U2OS [11]) | drug sensitivity score (HepG2 [12]) | drug sensitivity score (Calu-3 [13]) | drug sensitivity score (Vero E6 [14]) | drug sensitivity score (Caco-2 [15]) |
| --- | --- | --- | --- | --- | --- | --- | --- | --- | --- | --- | --- | --- | --- | --- | --- | --- | --- | --- | --- | --- | --- | --- | --- | --- | --- | --- | --- | --- | --- | --- | --- | --- | --- | --- | --- |
| NC(N)=Nc1nc(CSCC/C(N)=N/S(N)(=O)=O)cs1 [famotidine] | 94.3 | 95.4 | 99.6 | 95 | 99.4 | 106 | 102 | 90.4 | 97.5 | 93.4 | 107 | 91.5 | 113 | 105 | 97.7 | 113 | 106 | 89.2 | 101 | 94.3 | 107 | 106 | 108 | 97.2 | 109 | > 10 | > 10 | > 10 | > 10 | > 10 | 0 | 0 | 0 | 0 | 0 |
| NC(=O)OCC(COC(N)=O)c1ccccc1 [felbamate] | 97.8 | 102 | 97.6 | 107 | 104 | 96.5 | 94.7 | 102 | 106 | 98.5 | 91 | 95.8 | 91.5 | 123 | 98.1 | 87.8 | 89.8 | 99.6 | 90.3 | 104 | 92.9 | 97.2 | 95.9 | 99.1 | 97.1 | > 10 | > 10 | > 10 | > 10 | > 10 | 0 | 0 | 0 | 0 | 0 |
| O=C(CCCl)NCCc1ccccc1 [fenaclon] | 101 | 96.9 | 100 | 92.6 | 103 | 104 | 111 | 99.3 | 119 | 96.2 | 105 | 99.1 | 97.4 | 96 | 88.3 | 104 | 105 | 100 | 103 | 91.3 | 81.8 | 126 | 93.7 | 84.5 | 109 | > 10 | > 10 | > 10 | > 10 | > 10 | 0 | 0 | 0 | 0 | 0 |
| O=C(COc1ccc(Cl)cc1)N1CCN(Cc2ccc3c(c2)OCO3)CC1 [fipexide] | 102 | 100 | 101 | 95.2 | 96.2 | 83.9 | 90.8 | 86.6 | 93.8 | 102 | 101 | 93.1 | 103 | 93.5 | 110 | 97.6 | 99.9 | 101 | 101 | 97.6 | 98.8 | 90.1 | 93.5 | 93.4 | 88.4 | > 10 | > 10 | > 10 | > 10 | > 10 | 0 | 0 | 0 | 0 | 0 |
| CCC1=C(C)CN(C(=O)NCCc2ccc(S(=O)(=O)NC(=O)N[C@H]3CC[C@H](C)CC3)cc2)C1=O [glimepiride] | 98.9 | 99.2 | 97.7 | 99.8 | 92.1 | 83.1 | 90.7 | 104 | 98.7 | 104 | 98.6 | 104 | 91.7 | 104 | 98.6 | 111 | 110 | 105 | 91.9 | 95.3 | 87.2 | 94.3 | 98.9 | 91.4 | 76.2 | > 10 | > 10 | > 10 | > 10 | > 10 | 0 | 0 | 0 | 0 | 1.8 |
| CC#CCC(C)[C@H](O)/C=C/[C@@H]1[C@H]2C/C(=C/CCCC(=O)O)C[C@H]2C[C@H]1O (stereo not given in full) [iloprost] | 96 | 101 | 93.3 | 98.4 | 94 | 97.8 | 90.6 | 106 | 97.1 | 98.2 | 99.3 | 96.8 | 85 | 91.5 | 103 | 96.2 | 101 | 97 | 98.8 | 99.3 | 92.2 | 105 | 100 | 95.2 | 105 | > 10 | > 10 | > 10 | > 10 | > 10 | 0 | 0 | 0 | 0 | 0 |

Reference: the supplement of paper PMC13380429
